Test results taken from ChEMBL document CHEMBL5257069, “Structure-activity relationship analysis of activity-based probes targeting HTRA family of serine proteases” (Bioorg Med Chem Lett, 2023).
Activity calls are given as the source filed them. The calls are words filed in the database; no cut-off is given here.

Columns and labels:
[1] = target: T1, Neutrophil elastase (Homo sapiens) (UniProt P08246); test: Binding affinity to recombinant human neutrophil elastase assessed as increase in fluorescence using H2-OPT as substrate at 1 uM by SDS-PAGE based gel fluorescence scanning analysis; type: single protein
T1 sequence (whole entry): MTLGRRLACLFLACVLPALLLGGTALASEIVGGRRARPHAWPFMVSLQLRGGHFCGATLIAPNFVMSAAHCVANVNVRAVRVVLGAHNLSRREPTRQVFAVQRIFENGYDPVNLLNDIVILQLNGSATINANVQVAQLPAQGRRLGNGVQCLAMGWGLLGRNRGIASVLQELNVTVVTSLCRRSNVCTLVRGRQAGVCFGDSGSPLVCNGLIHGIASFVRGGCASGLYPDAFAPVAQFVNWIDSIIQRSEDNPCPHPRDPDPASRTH

[2] = target: T2, Periplasmic serine endoprotease DegP (Escherichia coli (strain K12)) (UniProt P0C0V0); test: Binding affinity to recombinant Escherichia coli DegP assessed as increase in fluorescence using H2-OPT as substrate at 1 uM by SDS-PAGE based gel fluorescence scanning analysis
T2 sequence (whole entry): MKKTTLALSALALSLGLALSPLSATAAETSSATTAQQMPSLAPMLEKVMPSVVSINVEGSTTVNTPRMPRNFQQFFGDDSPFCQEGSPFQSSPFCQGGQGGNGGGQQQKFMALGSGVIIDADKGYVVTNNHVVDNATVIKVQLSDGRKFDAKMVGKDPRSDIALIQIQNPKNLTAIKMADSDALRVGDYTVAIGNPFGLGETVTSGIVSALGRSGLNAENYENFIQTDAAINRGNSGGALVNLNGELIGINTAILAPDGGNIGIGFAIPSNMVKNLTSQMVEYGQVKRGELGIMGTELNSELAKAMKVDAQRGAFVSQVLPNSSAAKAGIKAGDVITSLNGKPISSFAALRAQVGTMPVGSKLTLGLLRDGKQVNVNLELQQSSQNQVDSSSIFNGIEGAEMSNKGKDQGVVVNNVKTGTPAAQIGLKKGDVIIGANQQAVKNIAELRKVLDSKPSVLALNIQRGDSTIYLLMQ

[3] = target: T3, Serine protease HTRA2, mitochondrial (Homo sapiens) (UniProt O43464); test: Binding affinity to recombinant human HTRA2 assessed as increase in fluorescence using H2-OPT as substrate at 1 uM by SDS-PAGE based gel fluorescence scanning analysis
T3 sequence (whole entry): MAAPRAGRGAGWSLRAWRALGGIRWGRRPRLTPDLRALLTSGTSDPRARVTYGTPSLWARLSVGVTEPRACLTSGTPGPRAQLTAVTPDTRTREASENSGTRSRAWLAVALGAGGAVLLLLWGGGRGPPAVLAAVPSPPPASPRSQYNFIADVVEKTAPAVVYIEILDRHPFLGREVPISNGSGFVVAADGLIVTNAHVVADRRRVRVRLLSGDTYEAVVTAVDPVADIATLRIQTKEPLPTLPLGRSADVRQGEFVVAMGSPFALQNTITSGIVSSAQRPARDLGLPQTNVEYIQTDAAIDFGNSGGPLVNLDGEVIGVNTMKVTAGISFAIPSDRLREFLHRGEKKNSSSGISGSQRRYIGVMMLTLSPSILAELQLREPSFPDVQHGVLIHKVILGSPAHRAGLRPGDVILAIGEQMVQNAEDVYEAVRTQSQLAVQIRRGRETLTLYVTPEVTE

[4] = target: Chymotrypsin (Homo sapiens) (UniProt Q99895+P17538+P40313+Q6GPI1); test: Binding affinity to recombinant human chymotrypsin assessed as increase in fluorescence using H2-OPT as substrate at 1 uM by SDS-PAGE based gel fluorescence scanning analysis; type: protein assay
[5] = target: T4, Serine protease HTRA2, mitochondrial (Homo sapiens, UniProt O43464); test: Inhibition of recombinant human HTRA2 using H2-OPT as substrate assessed as increase in fluorescence and measured for 2 hrs by fluorescent plate reader analysis
T4 sequence (O43464 whole entry): T3 sequence (whole entry)

[6] = target: Trypsin (Homo sapiens) (UniProt P07477+P07478+P35030); test: Binding affinity to recombinant human trypsin assessed as increase in fluorescence using H2-OPT as substrate at 1 uM by SDS-PAGE based gel fluorescence scanning analysis; type: protein assay
[7] = target: T5, Serine protease HTRA1 (Homo sapiens, UniProt Q92743); test: Inhibition of recombinant human HTRA1 using H2-OPT as substrate assessed as increase in fluorescence and measured for 2 hrs by fluorescent plate reader analysis
[8] = target: Albumin (Bos taurus, UniProt P02769); test: Binding affinity to bovine serum albumin in human U-87 MG cell culture media assessed as appearance of fluorescent bands at 5 uM by SDS-PAGE based In-gel fluorescence analysis; settings: cattle
[9] = target: T2, Periplasmic serine endoprotease DegP (Escherichia coli (strain K12)); test: Binding affinity to Escherichia coli DegP assessed as appearance of fluorescent bands at 1 to 50 uM incubated for 1 hrs by SDS-PAGE based gel fluorescence scanning analysis; settings: dose 1-50 µM
[10] = target: T2, Periplasmic serine endoprotease DegP (Escherichia coli (strain K12)); test: Binding affinity to Escherichia coli DegP assessed as appearance of fluorescent bands at 10 uM incubated for 2 hrs by SDS-PAGE based gel fluorescence scanning analysis
[11] = target: Albumin (Homo sapiens, UniProt P02768); test: Binding affinity to human serum albumin assessed as appearance of fluorescent bands at 2 uM by SDS-PAGE based In-gel fluorescence analysis
[12] = target: T5, Serine protease HTRA1; test: Binding affinity to human HTRA1 in human U-87 MG cells assessed as appearance of fluorescent bands at 5 uM by SDS-PAGE based In-gel fluorescence analysis; type: cell-based
[13] = target: T5, Serine protease HTRA1; test: Binding affinity to recombinant human HTRA1 in human serum assessed as appearance of fluorescent bands at 2 uM by In-gel fluorescence analysis; type: cell-free
[14] = target: T5, Serine protease HTRA1; test: Binding affinity to human HTRA1 in Amyloid-beta treated human U-87 MG cells assessed as appearance of fluorescent bands at 5 uM by SDS-PAGE based In-gel fluorescence analysis; type: cell-based
[15] = target: T5, Serine protease HTRA1; test: Inhibition of recombinant human HTRA1 using H2-OPT as substrate assessed as increase in fluorescence at 1 uM and measured for 2 hrs by fluorescent plate reader analysis
[16] = target: T3, Serine protease HTRA2, mitochondrial (Homo sapiens); test: Inhibition of recombinant human HTRA2 using H2-OPT as substrate assessed as increase in fluorescence at 1 uM and measured for 2 hrs by fluorescent plate reader analysis

T5 sequence (Q92743 whole entry): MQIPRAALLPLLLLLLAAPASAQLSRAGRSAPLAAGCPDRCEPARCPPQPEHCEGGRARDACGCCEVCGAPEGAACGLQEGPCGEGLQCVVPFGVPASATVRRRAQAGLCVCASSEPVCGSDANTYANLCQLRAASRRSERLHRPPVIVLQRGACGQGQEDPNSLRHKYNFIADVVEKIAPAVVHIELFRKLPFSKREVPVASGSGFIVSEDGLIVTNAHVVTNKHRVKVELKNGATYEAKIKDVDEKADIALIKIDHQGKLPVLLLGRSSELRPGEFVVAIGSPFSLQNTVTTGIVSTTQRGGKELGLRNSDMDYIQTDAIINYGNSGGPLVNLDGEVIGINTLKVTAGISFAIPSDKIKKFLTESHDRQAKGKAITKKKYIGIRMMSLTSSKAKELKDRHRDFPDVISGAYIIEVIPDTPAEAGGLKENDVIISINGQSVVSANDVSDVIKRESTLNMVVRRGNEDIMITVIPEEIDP
Albumin (Homo sapiens, UniProt P02768), sequence (P02768 whole entry): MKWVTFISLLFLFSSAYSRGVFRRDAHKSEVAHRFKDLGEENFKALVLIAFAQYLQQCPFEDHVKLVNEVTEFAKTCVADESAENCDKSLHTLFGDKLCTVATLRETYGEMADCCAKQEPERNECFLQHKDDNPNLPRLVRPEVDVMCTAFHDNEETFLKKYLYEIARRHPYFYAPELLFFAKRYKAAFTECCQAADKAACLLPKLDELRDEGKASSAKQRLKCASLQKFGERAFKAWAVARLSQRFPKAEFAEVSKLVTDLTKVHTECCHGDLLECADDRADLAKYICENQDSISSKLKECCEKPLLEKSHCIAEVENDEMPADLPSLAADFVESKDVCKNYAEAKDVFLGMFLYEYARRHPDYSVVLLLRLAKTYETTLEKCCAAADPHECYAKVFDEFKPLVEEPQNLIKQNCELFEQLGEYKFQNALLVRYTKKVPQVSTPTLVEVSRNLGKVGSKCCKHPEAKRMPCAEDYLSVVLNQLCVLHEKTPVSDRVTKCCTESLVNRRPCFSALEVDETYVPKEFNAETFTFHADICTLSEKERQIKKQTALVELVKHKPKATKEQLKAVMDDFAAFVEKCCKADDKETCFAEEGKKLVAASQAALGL
Albumin (Bos taurus, UniProt P02769), sequence (P02769 whole entry): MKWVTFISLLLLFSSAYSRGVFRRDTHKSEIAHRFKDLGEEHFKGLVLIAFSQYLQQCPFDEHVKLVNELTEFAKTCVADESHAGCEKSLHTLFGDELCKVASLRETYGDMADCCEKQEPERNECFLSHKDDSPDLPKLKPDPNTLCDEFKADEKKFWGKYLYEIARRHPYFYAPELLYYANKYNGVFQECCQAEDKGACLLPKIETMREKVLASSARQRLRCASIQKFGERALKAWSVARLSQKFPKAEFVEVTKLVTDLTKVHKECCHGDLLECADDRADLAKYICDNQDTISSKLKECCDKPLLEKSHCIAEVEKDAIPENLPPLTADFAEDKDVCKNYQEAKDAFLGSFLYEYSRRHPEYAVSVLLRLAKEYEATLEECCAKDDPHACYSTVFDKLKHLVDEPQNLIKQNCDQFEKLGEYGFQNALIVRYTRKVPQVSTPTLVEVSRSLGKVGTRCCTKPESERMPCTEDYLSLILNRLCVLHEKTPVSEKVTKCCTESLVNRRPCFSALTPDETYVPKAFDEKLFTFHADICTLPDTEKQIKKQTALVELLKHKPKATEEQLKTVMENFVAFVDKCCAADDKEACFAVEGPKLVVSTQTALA

## CC(C)C[C@H](NC(=O)CCCCCNC(=O)c1ccc(C(=O)O)c(-c2c3ccc(=O)cc-3oc3cc(O)ccc23)c1)C(=O)N[C@@H](Cc1ccc2ccccc2c1)C(=O)N[C@@H](CC(C)C)C(=O)N[C@@H](C(C)C)P(=O)(Oc1ccccc1)Oc1ccccc1
[1]
  Activity: Active
[2]
  Activity: inactive
[3]
  Activity: Active
[4]
  Activity: Active
[5]
  IC50: 5.4 µM

## CC(C)C[C@H](NC(=O)C1(NC(=O)[C@H](CCCCN)NC(=O)[C@H](Cc2ccccc2)NC(=O)CCCCCNC(=O)c2ccc(C(=O)O)c(-c3c4ccc(=O)cc-4oc4cc(O)ccc34)c2)CC1)P(=O)(Oc1ccccc1)Oc1ccccc1
[1]
  Activity: inactive
[2]
  Activity: inactive
[3]
  Activity: inactive
[4]
  Activity: inactive
[6]
  Activity: inactive

## CC(C)[C@H](NC(=O)[C@H](CC(C)(C)C)NC(=O)[C@H](CCCCN)NC(=O)[C@H](Cc1ccccc1)NC(=O)CCCCCNC(=O)c1ccc(C(=O)O)c(-c2c3ccc(=O)cc-3oc3cc(O)ccc23)c1)P(=O)(Oc1ccccc1)Oc1ccccc1
[2]
  Activity: inactive

## O=C1C(=Cc2ccc(-c3ccccc3[N+](=O)[O-])o2)C(=O)N(c2ccccc2)C(=S)N1c1ccccc1
[7]
  IC50: > 50 µM
[5]
  IC50: 18 µM

## CC[C@H](NC(=O)[C@H](CCCCN)NC(=O)[C@H](Cc1ccccc1)NC(=O)CCCCCNC(=O)c1ccc(C(=O)O)c(-c2c3ccc(=O)cc-3oc3cc(O)ccc23)c1)C(=O)N[C@@H](CC(C)C)P(=O)(Oc1ccccc1)Oc1ccccc1
[2]
  Activity: inactive

## CC(C)C[C@H](NC(=O)[C@H](CCCCN)NC(=O)[C@H](Cc1ccc2ccccc2c1)NC(=O)CCCCCNC(=O)c1ccc(C(=O)O)c(-c2c3ccc(=O)cc-3oc3cc(O)ccc23)c1)C(=O)N[C@@H](C(C)C)P(=O)(Oc1ccccc1)Oc1ccccc1
[1]
  Activity: Active
[3]
  Activity: Active
[4]
  Activity: Active
[5]
  IC50: 12 µM

## CC(C)C[C@H](NC(=O)CCCCCNC(=O)c1ccc(C(=O)O)c(-c2c3ccc(=O)cc-3oc3cc(O)ccc23)c1)C(=O)N[C@@H](Cc1ccccc1)C(=O)N[C@@H](CC1CC1)C(=O)N[C@@H](C(C)C)P(=O)(Oc1ccccc1)Oc1ccccc1
[2]
  Activity: inactive
[3]
  Activity: Active
[8]
  Activity: Active
[5]
  IC50: 5.2 µM

## CC(C)C[C@H](NC(=O)[C@H](CCCCN)NC(=O)[C@H](Cc1ccc2ccccc2c1)NC(=O)CCCCCNC(=O)c1ccc(C(=O)O)c(-c2c3ccc(=O)cc-3oc3cc(O)ccc23)c1)C(=O)N[C@@H](CC(C)C)P(=O)(Oc1ccccc1)Oc1ccccc1
[1]
  Activity: Active
[3]
  Activity: Active
[4]
  Activity: Active

## CC[C@H](NC(=O)[C@H](CCCCN)NC(=O)[C@H](Cc1ccccc1)NC(=O)CCCCCNC(=O)c1ccc(C(=O)O)c(-c2c3ccc(=O)cc-3oc3cc(O)ccc23)c1)C(=O)N[C@@H](C(C)C)P(=O)(Oc1ccccc1)Oc1ccccc1
[2]
  Activity: Active
[9]
  Activity: Dose-Dependent Effect
[5]
  IC50: 27 µM
[10]
  Activity: Active

## CC(C)C[C@H](NC(=O)CCCCCNC(=O)c1ccc(C(=O)O)c(-c2c3ccc(=O)cc-3oc3cc(O)ccc23)c1)C(=O)N[C@@H](Cc1ccccc1)C(=O)N[C@@H](CC(C)C)C(=O)N[C@@H](C(C)C)P(=O)(Oc1ccccc1)Oc1ccccc1
[7]
  IC50: 2 µM
[11]
  Activity: Not Active
[12]
  Activity: Active
[5]
  IC50: 7.8 µM
[13]
  Activity: Active

## CC(C)[C@H](NC(=O)[C@H](CC1CC1)NC(=O)[C@H](CCCCN)NC(=O)[C@H](Cc1ccccc1)NC(=O)CCCCCNC(=O)c1ccc(C(=O)O)c(-c2c3ccc(=O)cc-3oc3cc(O)ccc23)c1)P(=O)(Oc1ccccc1)Oc1ccccc1
[7]
  IC50: 6.3 µM
[3]
  Activity: Active
[11]
  Activity: Not Active
[14]
  Activity: Active
[12]
  Activity: Active
[5]
  IC50: 8.3 µM
[13]
  Activity: Active

## CC(C)[C@H](NC(=O)C1(NC(=O)[C@H](CCCCN)NC(=O)[C@H](Cc2ccccc2)NC(=O)CCCCCNC(=O)c2ccc(C(=O)O)c(-c3c4ccc(=O)cc-4oc4cc(O)ccc34)c2)CC1)P(=O)(Oc1ccccc1)Oc1ccccc1
[1]
  Activity: inactive
[2]
  Activity: inactive
[3]
  Activity: inactive
[4]
  Activity: inactive
[6]
  Activity: inactive

## CC(C)C[C@H](NC(=O)CCCCCNC(=O)c1ccc(C(=O)O)c(-c2c3ccc(=O)cc-3oc3cc(O)ccc23)c1)C(=O)N[C@@H](Cc1ccccc1)C(=O)N[C@@H](CC(C)(C)C)C(=O)N[C@@H](C(C)C)P(=O)(Oc1ccccc1)Oc1ccccc1
[2]
  Activity: inactive
[3]
  Activity: Active
[5]
  IC50: 8.1 µM

## NCCc1ccc(S(=O)(=O)F)cc1
[7]
  IC50: > 1000 µM
[15]
  inhibition: 20%
[16]
  inhibition: 20%
[5]
  IC50: > 1000 µM

## CC(C)C[C@H](NC(=O)[C@H](CCCCN)NC(=O)[C@H](Cc1ccccc1)NC(=O)CCCCCNC(=O)c1ccc(C(=O)O)c(-c2c3ccc(=O)cc-3oc3cc(O)ccc23)c1)C(=O)N[C@@H](C(C)C)P(=O)(Oc1ccccc1)Oc1ccccc1
[2]
  Activity: Active
[5]
  IC50: 24 µM

## CC(C)C[C@H](NC(=O)CCCCCNC(=O)c1ccc(C(=O)O)c(-c2c3ccc(=O)cc-3oc3cc(O)ccc23)c1)C(=O)N[C@@H](Cc1ccccc1)C(=O)NC1(C(=O)N[C@@H](C(C)C)P(=O)(Oc2ccccc2)Oc2ccccc2)CC1
[1]
  Activity: inactive
[2]
  Activity: inactive
[3]
  Activity: inactive
[4]
  Activity: inactive
[6]
  Activity: inactive
